# Entries after “also recorded” stand apart in the source; their conditions may differ.
# What was measured:
# Fzd4−/− mice = assay: Retinal vasculature in Fzd4−/− mouse model of FEVR (flat-mounted retinas, iso-lectin B4 staining, confocal microscopy); type: in vivo; settings: 0.5 mg/kg intraperitoneally every second day from P7 to P25, retinas at P25
# Description: FIG. 7 illustrates that treatment of Fzd4^−/− mice with the S1PR2 antagonist JTE-013 ameliorates the FEVR phenotype. Fzd4^−/− mice were injected with 0.5 mg/kg JTE-013 intraperitoneally every second day from P7 to P25. Retinas were flat mounted at P25 and the vasculature visualized by confocal microscopy subsequent to staining with iso-lectin B4 AlexaFluor 594.
# Fzd4^−/− mice were injected with 0.5 mg/kg JTE-013 intraperitoneally every second day from P7 to P25. Using standard protocols, retinas were flat mounted at P25 and the vasculature visualized by confocal microscopy subsequent to staining with iso-lectin B4 AlexaFluor 594. (Vascular development in the retina and inner ear: control by Norrin and Frizzled-4, a high-affinity ligand-receptor pair. Xu Q, Wang Y, Dabdoub A, Smallwood P M, Williams J, Woods C, Kelley M W, Jiang L, Tasman W, Zhang K, Nathans J. Cell 116, 883-95 (2004).)
# S1PR2 = S1PR2 (Homo sapiens, UniProt O95136); settings: cited from earlier work
# Chain of S1PR2 (O95136 whole entry): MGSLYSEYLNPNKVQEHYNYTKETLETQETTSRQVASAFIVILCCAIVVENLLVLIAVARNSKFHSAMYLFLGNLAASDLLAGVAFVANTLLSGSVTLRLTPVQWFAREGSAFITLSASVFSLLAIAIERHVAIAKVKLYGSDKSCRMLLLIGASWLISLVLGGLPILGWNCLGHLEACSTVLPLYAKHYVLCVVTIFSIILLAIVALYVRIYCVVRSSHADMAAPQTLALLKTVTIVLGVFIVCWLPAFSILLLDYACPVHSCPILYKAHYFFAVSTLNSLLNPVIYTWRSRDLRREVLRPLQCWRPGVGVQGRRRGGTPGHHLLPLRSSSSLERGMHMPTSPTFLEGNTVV
compound,measurement,setting,value
"Cc1nn(C)c2nc(NNC(=O)Nc3cc(Cl)nc(Cl)c3)cc(C(C)C)c12 [JTE-013, 1-(2,6-dichloro-4-pyridyl)-3-[(4-isopropyl-1,3-dimethyl-pyrazolo[3,4-b]pyridin-6-yl)amino]urea]",retinal vascular patterning / FEVR retinal vascularization defects,Fzd4−/− mice,substantial restoration of normal retinal vascular patterning; also recorded: able to ameliorate FEVR retinal vascularization defects
same,affinity for S1PR2,S1PR2,18 nM
same,specificity for S1PR2 versus other S1PRs,S1PR2,100 fold

# Source: patent US10487082B2, “S1PR2 antagonists and uses therefor” (DALHOUSIE UNIVERSITY, priority 2015, dated 2019)
